Source: ChEMBL document CHEMBL3244068 (J Med Chem, 1978)

Tests used:
[1] = Stability of the compound in acetone assessed as hydrolysis at 66 degC after 30 mins; type: physicochemical; conditions: 0.5 h
L1210 [2] = assay: Antitumor activity against mouse L1210 cells assessed as dose required to produce T/C of 125% administered for 10 days; type: functional
L1210 [3] = assay: Antitumor activity against mouse L1210 cells assessed as dose required to produce T/C of 125% administered for 15 days; type: functional
[4] = Ratio of LD50 for rat allografted with rat Walker 256 cells to ED90 for rat Walker 256 cells allografted in rat
W256 = assay: Antitumor activity against rat Walker 256 cells allografted in rat; type: functional
Rattus norvegicus = organism: Rattus norvegicus; assay: Toxicity in rat allografted with rat Walker 256 cells; type: organism-based
[5] = Drug metabolism assessed as log K of Holtzman rat liver esterase-mediated hydrolysis after 5 mins; type: ADME, tissue-based; conditions: isolated protein
P388 [6] = assay: Antitumor activity against mouse P388 cells allografted in mouse assessed as dose required to produce T/C of 125% administered for 9 days; type: functional
P388 [7] = assay: Antitumor activity against mouse P388 cells allografted in mouse assessed as dose required to produce T/C of 180% administered for 9 days; type: functional
L1210 [8] = assay: Antitumor activity against mouse L1210 cells assessed as dose required to produce T/C of 125% administered for 9 days; type: functional
L1210 [9] = assay: Antitumor activity against mouse L1210 cells assessed as dose required to produce T/C of 125% administered for 8 days; type: functional
P388 [10] = assay: Antitumor activity against mouse P388 cells allografted in mouse assessed as dose required to produce T/C of 125% administered for 10 days; type: functional
P388 [11] = assay: Antitumor activity against mouse P388 cells allografted in mouse assessed as dose required to produce T/C of 180% administered for 10 days; type: functional

Row | SMILES | Ratio [4] | log1/CED90 (W256) | log1/CLD50 (Rattus norvegicus) | other results
1 | ClCCN(CCCl)c1ccc(/C=C/c2ccccc2)cc1 | – | – | – | log K [1]: -3.95; log(%) [1]: 1.26
2 | CS(=O)(=O)OCCN(CCOS(C)(=O)=O)c1ccc([N+](=O)[O-])cc1 | – | – | – | log(1/C) (L1210 [2]): 3.74
3 | CC(=O)Nc1cc(N(CCOS(C)(=O)=O)CCOS(C)(=O)=O)ccc1N=O | – | – | – | log(1/C) (L1210 [3]): 6.05
4 | CCOC(=O)c1ccc(N(CCOS(C)(=O)=O)CCOS(C)(=O)=O)cc1 | – | – | – | log(1/C) (L1210 [3]): 4.07
5 | CS(=O)(=O)OCCN(CCOS(C)(=O)=O)c1ccccc1 | – | – | – | log(1/C) (L1210 [3]): 3.97
6 | O=C(Oc1ccc(N(CCBr)CCBr)cc1)c1ccccc1 | 3.5 | 5.45 | 5.45 | –
7 | Cc1ccccc1C(=O)Oc1ccc(N(CCBr)CCBr)cc1 | 3.5 | 4.96 | 4.96 | –
8 | Cc1cccc(C)c1C(=O)Oc1ccc(N(CCBr)CCBr)cc1 | 3.5 | 3.81 | 3.58 | –
9 | CCc1ccccc1C(=O)Oc1ccc(N(CCBr)CCBr)cc1 | 3.5 | 4.96 | 4.64 | –
10 | CC(C)c1ccccc1C(=O)Oc1ccc(N(CCBr)CCBr)cc1 | 3.5 | 4.39 | 4.66 | –
11 | Cc1cccc(C(=O)Oc2ccc(N(CCBr)CCBr)cc2)c1 | 3.5 | 5.18 | 5.16 | –
12 | Cc1ccc(C(=O)Oc2ccc(N(CCBr)CCBr)cc2)cc1 | 3.5 | 4.94 | 5.32 | –
13 | O=C(Oc1ccc(N(CCBr)CCBr)cc1)c1cccc(Cl)c1 | 3.5 | 4.96 | 5.11 | –
14 | O=C(Oc1ccc(N(CCBr)CCBr)cc1)c1ccc(Cl)cc1 | 3.5 | 4.66 | 5.18 | –
15 | COc1ccc(C(=O)Oc2ccc(N(CCBr)CCBr)cc2)cc1 | 3.5 | 5.12 | 5.21 | –
16 | O=C(Oc1ccc(N(CCBr)CCBr)cc1)c1cccc(C(F)(F)F)c1 | 3.5 | 4.99 | 5.11 | –
17 | O=C(Oc1ccc(N(CCBr)CCBr)cc1)c1cccc([N+](=O)[O-])c1 | 3.5 | 4.67 | 5.07 | –
18 | O=C(Oc1ccc(N(CCBr)CCBr)cc1)c1ccc([N+](=O)[O-])cc1 | 3.5 | 4.86 | 5.37 | –
19 | O=C(Oc1ccc(N(CCCl)CCCl)cc1)c1ccccc1 | 3.5 | 4.86 | 4.06 | –
20 | Cc1ccccc1C(=O)Oc1ccc(N(CCCl)CCCl)cc1 | 3.5 | 4.55 | 3.71 | –
21 | Cc1ccc(C(=O)Oc2ccc(N(CCCl)CCCl)cc2)cc1 | 3.5 | 4.78 | 4.2 | –

Row | SMILES | Ratio [4] | log1/CED90 (W256) | log1/CLD50 (Rattus norvegicus) | other results
22 | Cc1cccc(C)c1C(=O)Oc1ccc(N(CCCl)CCCl)cc1 | 3.5 | 3.31 | 3.1 | –
23 | O=C(Oc1ccc(N(CCCl)CCCl)cc1)c1cccc(Br)c1 | 3.5 | 4.22 | 3.84 | –
24 | O=C(Oc1ccc(N(CCCl)CCCl)cc1)c1ccc(Br)cc1 | 3.5 | 4.84 | 4.19 | –
25 | O=C(Oc1ccc(N(CCCl)CCCl)cc1)c1cccc(Cl)c1 | 3.5 | 4.55 | 3.95 | –
26 | O=C(Oc1ccc(N(CCCl)CCCl)cc1)c1cccc(F)c1 | 3.5 | 4.88 | 4.38 | –
27 | O=C(Oc1ccc(N(CCCl)CCCl)cc1)c1ccc(F)cc1 | 3.5 | 4.9 | 4.21 | –
28 | COc1ccc(C(=O)Oc2ccc(N(CCCl)CCCl)cc2)cc1 | 3.5 | 4.89 | 4.11 | –
29 | O=C(Oc1ccc(N(CCCl)CCCl)cc1)c1cccc([N+](=O)[O-])c1 | 3.5 | 4.81 | 4.4 | –
30 | COc1cccc(C(=O)Oc2ccc(N(CCBr)CCBr)cc2)c1 | 3.5 | – | 5.25 | –
31 | CCN(CC)c1ccc(OC(=O)c2ccc([N+](=O)[O-])cc2)cc1 | – | – | – | log K [5]: 0.67
32 | CCN(CC)c1ccc(OC(=O)c2cccc([N+](=O)[O-])c2)cc1 | – | – | – | log K [5]: 0.55
33 | CCN(CC)c1ccc(OC(=O)c2ccc(C(F)(F)F)cc2)cc1 | – | – | – | log K [5]: 0.45
34 | CCN(CC)c1ccc(OC(=O)c2cccc(C(F)(F)F)c2)cc1 | – | – | – | log K [5]: 0.34
35 | CCN(CC)c1ccc(OC(=O)c2cccc(Cl)c2)cc1 | – | – | – | log K [5]: 0.32
36 | CCN(CC)c1ccc(OC(=O)c2ccc(Cl)cc2)cc1 | – | – | – | log K [5]: 0.2
37 | CCN(CC)c1ccc(OC(=O)c2ccc(C)cc2)cc1 | – | – | – | log K [5]: -0.41
38 | CCN(CC)c1ccc(OC(=O)c2cccc(C)c2)cc1 | – | – | – | log K [5]: 0.32
39 | CCN(CC)c1ccc(OC(=O)c2ccc(OC)cc2)cc1 | – | – | – | log K [5]: -0.49
40 | CCN(CC)c1ccc(OC(=O)c2cccc(OC)c2)cc1 | – | – | – | log K [5]: 0.15
41 | CCN(CC)c1ccc(OC(=O)c2ccccc2)cc1 | – | – | – | log K [5]: -0.26
42 | CCOC(=O)CCOc1ccccc1N(CCCl)CCCl | – | – | – | log(1/C) (L1210 [3]): 4.67

Row | SMILES | Ratio [4] | log1/CED90 (W256) | log1/CLD50 (Rattus norvegicus) | other results
43 | O=C(O)c1ccccc1N(CCO)CCCl | – | – | – | log(1/C) (L1210 [3]): 4.94
44 | CCC(=O)OCC(Br)CBr (stereo not drawn) | – | – | – | log(1/C) (L1210 [3]): 5.83
45 | ClCCN(CCCl)c1ccc(/N=C/c2ccccc2)cc1 | – | – | – | log(1/C) (P388 [6]): 5.33; log(1/C) (P388 [7]): 5
46 | CS(=O)(=O)OCCN(CCOS(C)(=O)=O)c1ccc([N+](=O)[O-])c(Cl)c1 | – | – | – | log(1/C) (L1210 [3]): 3.02
47 | Cc1ccc(S(=O)(=O)OCCN(CCOS(=O)(=O)c2ccc(C)cc2)c2cccc(F)c2)cc1 | – | – | – | log(1/C) (L1210 [3]): 3.31
48 | Cc1ccc(S(=O)(=O)OCCN(CCOS(=O)(=O)c2ccc(C)cc2)c2ccccc2)cc1 | – | – | – | log(1/C) (L1210 [3]): 3.8
49 | CS(=O)(=O)OCCN(CCOS(C)(=O)=O)c1cccc([N+](=O)[O-])c1 | – | – | – | log(1/C) (L1210 [2]): 3.93
50 | CS(=O)(=O)OCCN(CCOS(C)(=O)=O)c1cccc(C(F)(F)F)c1 | – | – | – | log(1/C) (L1210 [3]): 4.42
51 | CCOC(=O)c1cccc(N(CCOS(C)(=O)=O)CCOS(C)(=O)=O)c1 | – | – | – | log(1/C) (L1210 [2]): 4.63
52 | CS(=O)(=O)OCCN(CCOS(C)(=O)=O)c1cccc(Cl)c1 | – | – | – | log(1/C) (L1210 [2]): 4.85
53 | CCOC(=O)c1cc(N(CCOS(C)(=O)=O)CCOS(C)(=O)=O)ccc1N | – | – | – | log(1/C) (L1210 [3]): 4.85
54 | Cc1ccc(S(=O)(=O)OCCN(CCOS(=O)(=O)c2ccc(C)cc2)c2ccc(F)cc2)cc1 | – | – | – | log(1/C) (L1210 [8]): 4.2
55 | CC(=O)Nc1cccc(N(CCOS(C)(=O)=O)CCOS(C)(=O)=O)c1 | – | – | – | log(1/C) (L1210 [8]): 5.67
56 | CS(=O)(=O)OCCN(CCOS(C)(=O)=O)c1ccc(N=O)c(Cl)c1 | – | – | – | log(1/C) (L1210 [3]): 6.03
57 | CS(=O)(=O)OCCN(CCOS(C)(=O)=O)c1ccc(N=O)cc1 | – | – | – | log(1/C) (L1210 [9]): 6.13
58 | Cc1cc(N(CCOS(C)(=O)=O)CCOS(C)(=O)=O)ccc1N=O | – | – | – | log(1/C) (L1210 [2]): 6.4
59 | CCOC(=O)CCCc1ccc(N(CCCl)CCCl)cc1 | – | – | – | log K [1]: -3.84; log(%) [1]: 1.36
60 | O=C(O)CCCc1ccc(N(CCCl)CCCl)cc1 [CHLORAMBUCIL] | – | 5.12 | 4.03 | log K [1]: -3.65
61 | ClCCN(CCCl)c1ccc2ccccc2c1 [CHLORNAPHAZINE] | – | – | – | log(%) [1]: 1.18
62 | NC(Cc1ccc(N(CCCl)CCCl)cc1)C(=O)O (stereo not drawn) [SARCOLYSIN] | – | – | – | log(1/C) (L1210 [3]): 4.94; log(1/C) (P388 [10]): 5.61; log(1/C) (P388 [11]): 5.18
